Reference: US20230201030A1, “DISSOLVABLE MEDICAL DEVICE FOR DRUGS DELIVERY” (Alcon Inc., priority 2021, published 2023)

Test system: pupil
Assay: Response behavior of phenylephrine (pupil dilation) delivered in the presence/absence of the polymeric film
Format: in vivo
Settings: 0.005% phenylephrine with polymeric film vs 2.5% phenylephrine alone
Method: In the groups with such treatments, a 0.1-0.2 g lens was applied to the center of the cornea. 1 drop of dilating agent (phenylephrine) of predetermined concentration was applied at t(0). Size of pupil was measured using a pre-measured device for reference and followed up using the same scale.

## CNC[C@H](O)c1cccc(O)c1 [phenylephrine, Phenylephrine]
  reduction of drug load at similar efficacy: 500 fold
